The results in this text go back to patent publication US20260049104A1, “PEPTIDES WITH ANTIMICROBIAL PROPERTIES” (priority 2022, published 2026).

≈ marks a conversion by molar mass, not a printed value. Where two headings read alike, the source gives them in different places. No end group written: not given here. Some results are limits rather than exact numbers.

For one experiment, the system named is Bacillus subtilis. The experiment is classed as cell-based. The note with it: Bacillus subtilis ATCC 6633. An excerpt: (§1) The experiments were repeated three times.
A further experiment concerns Morganella morganii. The experiment is classed as cell-based. Conditions: Morganella morganii ATCC 25830.
Excerpt: as §1

Another experiment relates to Pseudomonas aeruginosa. The experiment is classed as cell-based. Conditions: for MIC: Pseudomonas aeruginosa ATCC 9027; for MIC value: Table 15, unit inferred.
Excerpt: as §1

The test system of the next experiment is Staphylococcus aureus. Conditions: Staphylococcus aureus ATCC 29737. On the procedure: (§2) MIC screening of the peptides against a panel of ATCC and clinical strains was performed using broth microdilution method.^1 Briefly, peptides stock solutions in DMSO (0.1/G TFA) were diluted into Mueller Hinton Broth (MHB), followed by two-fold serial dilution in a 96-well plate. Bacteria culture in mid-log phase was diluted into MHB to yield […] colony-forming units (CFU)/mL. Equal volume of the starting inoculum was added to the peptide samples, then incubated for 18-20 h (37° C., 120 rpm). OD600 of the samples was then measured using Tecan Infinite M200 (TECAN, Männedorf, Switzerland). MIC is defined as the lowest peptide concentration to achieve more than 90% reduction in OD600 relative to the drug-free control. The experiments were repeated three times. Colistin-resistant clinical isolates are a kind gift from Dr. Jeanette Koh (National University Hospital, Singapore). Multidrug-resistant clinical isolates are a kind gift from Dr. Lakshminarayanan Rajamani (Singapore Eye Research Institute, Singapore).
(§3) Kanamycin and ampicillin were used as antibacterial control agents. […] Then, sequential 2-fold serial dilutions of the mix were diluted in 50 μL MH broth and 50 μL cell cultures were added to wells. […] All assays were carried out in triplicate.

The subject of another experiment is Escherichia coli. Conditions: for MIC: Escherichia coli ATCC 25922; for MIC value: Table 15, unit inferred. The procedure:
as §2, §3

The test system of another experiment is Acinetobacter baumannii. The note with it: for MIC value: Table 15, unit inferred. The procedure: as §2, §3
Another experiment deals with Klebsiella pneumoniae. Conditions: for MIC value: Table 15, unit inferred. The procedure:
as §2, §3

The next experiment deals with Enterococcus faecalis. The experiment is classed as cell-based. Conditions: strain not given, Table 14, preliminary screening. The procedure:
MIC values for compounds (1-11) were assessed using 96-well plate format with Mueller Hinton (MH) broth, using the two-fold dilution method, previously reported in standard methods provided by Clinical and Laboratory Standards S8 Institute (CLSI). Kanamycin and ampicillin were used as antibacterial control agents. According to the reference, the compounds (1-11) were first dissolved in DMSO+0.1% TFA at a concentration of 3.2 mg/mL and 4 μL was serially diluted in 96 μL of MH broth. Then, sequential 2-fold serial dilutions of the mix were diluted in 50 μL MH broth and 50 μL cell cultures were added to wells. […] All assays were carried out in triplicate.

The test system of another experiment is Enterobacter cloacae. Conditions: for MIC value: Table 15, unit inferred; for MIC: Enterobacter cloacae, strain not given, Table 14, preliminary screening. On the procedure:
as §2, §3

The test system of experiment [1] is Gram-positive and Gram-negative bacteria. The note with it: E. cloacae; for antibacterial activity: panel of E. coli, K. pneumoniae, A. baumannii, E. faecalis and S. aureus, preliminary screening. On the procedure: as §2, §3
Another experiment has as its system E. coli M6. The note with it: E. coli M6, compared with xenorceptide A2 (2). On the procedure: Resistance development of E. coli M6 against xenorceptide A2 was assessed by serial passaging of the bacteria in broth containing subinhibitory concentrations of the peptide. In brief, bacteria culture at mid-log phase was diluted to 10^5-10^6 CFU/mL in MHB containing 0.25×, 0.5×, 1×, 2×, and 4×MIC of the peptide. […] A new set of peptide concentration range was added to the cultures based on the latest MIC. This process was repeated over 14 days for three independent starting cultures.

The mark [2] stands for this setting: Acinetobacter baumannii ATCC 19606.
Where [3] appears, read: Klebsiella pneumoniae ATCC 700603.
[4] abbreviates: Table 14, preliminary screening.
[5] abbreviates: Acinetobacter baumanii ATCC 19606, Table 14, preliminary screening.
Where [6] appears, read: Klebsiella pneumoniae ATC 700603, Table 14, preliminary screening.

For `CC[C@H](C)[C@H](NC(=O)[C@H](CCCNC(=N)N)NC(=O)[C@H]1NC(=O)[C@H]([C@@H](C)O)NC(=O)[C@@H](NC(=O)[C@H]2NC(=O)[C@H](C)NC(=O)[C@@H](NC(=O)[C@H](C)NC(=O)[C@H]3NC(=O)[C@H]([C@@H](C)CC)NC(=O)[C@@H](N)Cc4c[nH]c5cc(ccc45)[C@@H]3C(N)=O)Cc3ccc(cc3)[C@@H]2C(N)=O)Cc2c[nH]c3cc(ccc23)[C@@H]1CCCN)C(=O)O` [xenorceptide A3], the MIC against Bacillus subtilis is greater than 64 mg/L; with Morganella morganii, 64 mg/L (≈ 42.3 µM); in the experiment on Pseudomonas aeruginosa it was 64 mg/L (≈ 42.3 µM); with Staphylococcus aureus, greater than 64 mg/L; with Escherichia coli, 8 mg/L (≈ 5.28 µM); in the experiment on Acinetobacter baumannii (setting [2]), greater than 64 mg/L. Also, the MIC against Klebsiella pneumoniae (setting [3]) was 8 mg/L (≈ 5.28 µM). Also, the “MIC (E. coli)” value in the experiment on Escherichia coli (strain not stated, product produced and tested against E. coli) came out at 8 mg/L (≈ 5.28 µM).

With `CC(C)[C@@H]1NC(=O)[C@@H](N)Cc2c[nH]c3cc(ccc23)C(C(N)=O)[C@@H](C(=O)N[C@@H](C)C(=O)N[C@H]2Cc3ccc(cc3)C(C(N)=O)[C@@H](C(=O)N[C@H]3Cc4c[nH]c5cc(ccc45)C(CCCN)[C@@H](C(=O)N[C@@H](CCCNC(=N)N)C(=O)N[C@@H](Cc4ccccc4)C(=O)O)NC(=O)[C@H]([C@@H](C)O)NC3=O)NC(=O)[C@H](C)NC2=O)NC1=O` (stereo partly shown) [xenorceptide A8], the MIC with Pseudomonas aeruginosa was 64 mg/L (≈ 41.7 µM); in the experiment on Staphylococcus aureus, greater than 64 mg/L; with Escherichia coli, 2 mg/L (≈ 1.3 µM); in the experiment with Acinetobacter baumannii (setting [2]), greater than 64 mg/L; against Klebsiella pneumoniae (setting [3]) it was 4 mg/L (≈ 2.61 µM).

Take `CC(C)[C@@H]1NC(=O)[C@@H](NC(=O)CNC(=O)[C@H](CCC(=O)O)NC(=O)CNC(=O)[C@@H](N)CCCNC(=N)N)Cc2c[nH]c3cc(ccc23)C(CCNC(=N)N)[C@@H](C(=O)N[C@@H](C)C(=O)N[C@@H](Cc2ccc(O)cc2)C(=O)N[C@H]2Cc3c[nH]c4cc(ccc34)C(CCCN)[C@@H](C(=O)N[C@@H](CCCNC(=N)N)C(=O)N[C@@H](Cc3ccccc3)C(=O)O)NC(=O)[C@H](C)NC2=O)NC1=O` (stereo partly shown) [Compound 24, xenorceptide D1]: the MIC value worked out at 32 mg/L (≈ 18 µM) with Pseudomonas aeruginosa (Pseudomonas aeruginosa DM4150R); 16 mg/L (≈ 9 µM) against Pseudomonas aeruginosa (Pseudomonas aeruginosa DM23376); 16 mg/L (≈ 9 µM) against Pseudomonas aeruginosa (Pseudomonas aeruginosa DR4877/07); 16 mg/L (≈ 9 µM) in the experiment with Pseudomonas aeruginosa (Pseudomonas aeruginosa DR5790/07); 4 mg/L (≈ 2.25 µM) with Enterobacter cloacae (Enterobacter cloacae ATCC 13047); 4 mg/L (≈ 2.25 µM) in the experiment on Enterobacter cloacae (Enterobacter cloacae CRE1010). The MIC value is 8 mg/L (≈ 4.5 µM) against Enterobacter cloacae (Enterobacter cloacae CRE1014); 8 mg/L (≈ 4.5 µM) in the experiment on Enterobacter cloacae (Enterobacter cloacae CRE1015); 8 mg/L (≈ 4.5 µM) in the experiment with Enterobacter cloacae (Enterobacter cloacae CRE1016); 8 mg/L (≈ 4.5 µM) in the experiment on Enterobacter cloacae (Enterobacter cloacae CRE1017); 4 mg/L (≈ 2.25 µM) against Escherichia coli (Escherichia coli M2); 2 mg/L (≈ 1.12 µM) in the experiment on Escherichia coli (Escherichia coli M6). For the same compound, the MIC value against Escherichia coli (Escherichia coli M10) was 2 mg/L (≈ 1.12 µM); with Escherichia coli (Escherichia coli M11), 2 mg/L (≈ 1.12 µM); in the experiment with Acinetobacter baumannii (Acinetobacter baumanii ACβA1001) it was 4 mg/L (≈ 2.25 µM); with Acinetobacter baumannii (Acinetobacter baumanii ACβA1002) it was 4 mg/L (≈ 2.25 µM); in the experiment with Acinetobacter baumannii (Acinetobacter baumanii ACβA1003), 4 mg/L (≈ 2.25 µM); in the experiment on Acinetobacter baumannii (Acinetobacter baumanii ACβA1004) it was 4 mg/L (≈ 2.25 µM). Further, the MIC value is 2 mg/L (≈ 1.12 µM) against Acinetobacter baumannii (Acinetobacter baumanii ATCC 19606); 1 mg/L (≈ 0.562 µM) against Klebsiella pneumoniae (ATCC 25922, printed under Klebsiella pneumoniae); 2 mg/L (≈ 1.12 µM) in the experiment on Klebsiella pneumoniae (CRE1006, Klebsiella pneumoniae); 2 mg/L (≈ 1.12 µM) in the experiment on Klebsiella pneumoniae (setting [3]); 4 mg/L (≈ 2.25 µM) with Klebsiella pneumoniae (Klebsiella pneumoniae CRE 1007); 4 mg/L (≈ 2.25 µM) in the experiment with Klebsiella pneumoniae (Klebsiella pneumoniae CRE1008). For the same compound, the MIC value turned out to be 2 mg/L (≈ 1.12 µM) against Klebsiella pneumoniae (Klebsiella pneumoniae CRE1011) and 4 mg/L (≈ 2.25 µM) in the experiment on Klebsiella pneumoniae (Klebsiella pneumoniae CRE1012). Besides, the minimum inhibitory concentration (MIC) against Enterococcus faecalis is 64 mg/L (≈ 36 µM); with Enterobacter cloacae it was 4 mg/L (≈ 2.25 µM); in the experiment with Staphylococcus aureus (setting [4]), greater than 64 mg/L; with Escherichia coli (setting [4]), 1 mg/L (≈ 0.562 µM); in the experiment on Acinetobacter baumannii (setting [5]), 2 mg/L (≈ 1.12 µM); with Klebsiella pneumoniae (setting [6]), 2 mg/L (≈ 1.12 µM). Moreover, the MIC value range in [1] (E. coli, A. baumannii and K. pneumoniae) fell in the range of 1 to 4 mg/L.

Take colistin [reference compound]: the “development of reduced susceptibility in serial passage” value with E. coli M6 is “readily became less susceptible”.

For the compound RGEGWVRAYWAKRF [Compound 26], the MIC with Enterococcus faecalis, against Enterobacter cloacae, against Staphylococcus aureus (setting [4]), in the experiment with Escherichia coli (setting [4]), in the experiment on Acinetobacter baumannii (setting [5]) and against Klebsiella pneumoniae (setting [6]) was greater than 64 mg/L throughout. Further, the antibacterial activity result in [1] was “not active”.

As for `C[C@H](NC(=O)[C@H](CC(N)=O)NC(=O)[C@H](C)NC(=O)[C@@H](N)Cc1ccccc1)C(=O)N[C@H](C(=O)N[C@H]1Cc2c[nH]c3cc(ccc23)C(CCCN)[C@@H](C(=O)N[C@@H](CO)C(=O)N[C@@H](Cc2ccccc2)C(=O)O)NC(=O)[C@H](CO)NC1=O)[C@@H](C)O` (stereo partly shown) [Compound 31], the antibacterial activity result in [1] is recorded as “no activity”.

By MIC is commonly meant the lowest concentration found to suppress growth. The low end stands for inhibition by little substance, the high end for a need for much substance.
